Measured values published in patent US12479850B2, “Compound having Axl and c-Met kinase inhibitory activity, preparation thereof and application thereof” (Shanghai Institute of Materia Medica, Chinese Academy of …, priority 2019, dated 2025).

Tests used:
[1] = molecular target: T1, Axl kinase domain recombinant protein (Homo sapiens, UniProt P30530); experiment: ELISA kinase activity assay, Axl
T1 sequence (P30530 536-807 limits assumed): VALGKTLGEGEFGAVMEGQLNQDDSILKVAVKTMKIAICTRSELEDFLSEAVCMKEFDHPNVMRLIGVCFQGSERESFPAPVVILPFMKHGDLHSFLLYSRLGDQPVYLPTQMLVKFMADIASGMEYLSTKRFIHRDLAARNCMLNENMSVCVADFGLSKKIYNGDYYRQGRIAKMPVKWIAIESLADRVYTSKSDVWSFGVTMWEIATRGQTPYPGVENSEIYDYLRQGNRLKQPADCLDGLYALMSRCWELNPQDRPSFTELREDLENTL

[2] = molecular target: c-Met kinase domain recombinant protein (Homo sapiens, UniProt P08581); experiment: ELISA kinase activity assay, c-Met
Chain of c-Met kinase domain recombinant protein (P08581 1078-1345 limits assumed): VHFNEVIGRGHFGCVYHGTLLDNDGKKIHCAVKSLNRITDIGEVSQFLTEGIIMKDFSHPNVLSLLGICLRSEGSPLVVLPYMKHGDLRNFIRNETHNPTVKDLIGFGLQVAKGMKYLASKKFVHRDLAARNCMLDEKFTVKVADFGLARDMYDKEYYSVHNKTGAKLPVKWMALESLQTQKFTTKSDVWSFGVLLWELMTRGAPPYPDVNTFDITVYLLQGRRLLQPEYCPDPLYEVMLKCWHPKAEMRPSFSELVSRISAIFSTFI

IC50 [1] [nM]	IC50 [2] [nM]	Compound
< 10	< 10	Cn1cc(-c2cc(Oc3ccc(NC(=O)c4cn(CC5CC5)c(=O)n(-c5ccc(F)cc5)c4=O)cc3F)ccn2)cn1 [No. 5, 1-(cyclopropylmethyl)-N-(3-fluoro-4-((2-(1-methyl-1H-pyrazol-4-yl)pyridin-4-yl)oxy)phenyl)-3-(4-fluorophenyl)-2,4-dioxo-1,2,3,4-tetrahydropyrimidin-5-carboxamide]
10 to 100	10 to 100	Cn1cc(-c2cc(Oc3ccc(NC(=O)c4cn(CC5CCCC5)c(=O)n(-c5ccc(F)cc5)c4=O)cc3F)ccn2)cn1 [No. 6, 1-(cyclopentylmethyl)-N-(3-fluoro-4-((2-(1-methyl-1H-pyrazol-4-yl)pyridin-4-yl)oxy)phenyl)-3-(4-fluorophenyl)-2,4-dioxo-1,2,3,4-tetrahydropyrimidin-5-carboxamide]
< 10	< 10	C=CCn1cc(C(=O)Nc2ccc(Oc3ccnc(-c4cnn(C)c4)c3)c(F)c2)c(=O)n(-c2ccc(F)cc2)c1=O [No. 7, 1-allyl-N-(3-fluoro-4-((2-(1-methyl-1H-pyrazol-4-yl)pyridin-4-yl)oxy)phenyl)-3-(4-fluorophenyl)-2,4-dioxo-1,2,3,4-tetrahydropyrimidin-5-carboxamide]
10 to 100	10 to 100	C#CCn1cc(C(=O)Nc2ccc(Oc3ccnc(-c4cnn(C)c4)c3)c(F)c2)c(=O)n(-c2ccc(F)cc2)c1=O [No. 8, N-(3-fluoro-4-((2-(1-methyl-1H-pyrazol-4-yl)pyridin-4-yl)oxy)phenyl)-3-(4-fluorophenyl)-2,4-dioxo-1-propargyl-1,2,3,4-tetrahydropyrimidin-5-carboxamide]
> 100	10 to 100	Cn1cc(-c2cc(Oc3ccc(NC(=O)c4cn(CCO)c(=O)n(-c5ccc(F)cc5)c4=O)cc3F)ccn2)cn1 [No. 9, N-(3-fluoro-4-((2-(1-methyl-1H-pyrazol-4-yl)pyridin-4-yl)oxy)phenyl)-3-(4-fluorophenyl)-1-(2-hydroxyethyl)-2,4-dioxo-1,2,3,4-tetrahydropyrimidin-5-carboxamide]
< 10	< 10	COCCn1cc(C(=O)Nc2ccc(Oc3ccnc(-c4cnn(C)c4)c3)c(F)c2)c(=O)n(-c2ccc(F)cc2)c1=O [No. 10, N-(3-fluoro-4-((2-(1-methyl-1H-pyrazol-4-yl)pyridin-4-yl)oxy)phenyl)-3-(4-fluorophenyl)-1-(2-methoxyethyl)-2,4-dioxo-1,2,3,4-tetrahydropyrimidin-5-carboxamide]
< 10	< 10	Cn1cc(-c2cc(Oc3ccc(NC(=O)c4cn(C5CCCC5)c(=O)n(-c5ccc(F)cc5)c4=O)cc3F)ccn2)cn1 [No. 11, 1-cyclopentyl-N-(3-fluoro-4-((2-(1-methyl-1H-pyrazol-4-yl)pyridin-4-yl)oxy)phenyl)-3-(4-fluorophenyl)-2,4-dioxo-1,2,3,4-tetrahydropyrimidin-5-carboxamide]
> 100	> 100	Cn1cc(-c2cc(Oc3ccc(NC(=O)c4cn(-c5ccc(F)cc5)c(=O)n(-c5ccc(F)cc5)c4=O)cc3F)ccn2)cn1 [No. 12, N-(3-fluoro-4-((2-(1-methyl-1H-pyrazol-4-yl)pyridin-4-yl)oxy)phenyl)-1,3-bis(4-fluorophenyl)-2,4-dioxo-1,2,3,4-tetrahydropyrimidin-5-carboxamide]
10 to 100	10 to 100	CC(C)n1cc(C(=O)Nc2ccc(Oc3ccnc(-c4cnn(C)c4)c3)c(F)c2)c(=O)n(-c2ccccc2)c1=O [No. 13, N-(3-fluoro-4-((2-(1-methyl-1H-pyrazol-4-yl)pyridin-4-yl)oxy)phenyl)-1-isopropyl-2,4-dioxo-3-phenyl-1,2,3,4-tetrahydropyrimidin-5-carboxamide]
< 10	< 10	CC(C)n1cc(C(=O)Nc2ccc(Oc3ccnc(-c4cnn(C)c4)c3)c(F)c2)c(=O)n(-c2ccc(Cl)cc2)c1=O [No. 14, 3-(4-chlorophenyl)-N-(3-fluoro-4-((2-(1-methyl-1H-pyrazol-4-yl)pyridin-4-yl)oxy)phenyl)-1-isopropyl-2,4-dioxo-1,2,3,4-tetrahydropyrimidin-5-carboxamide]
< 10	< 10	Cc1ccc(-n2c(=O)c(C(=O)Nc3ccc(Oc4ccnc(-c5cnn(C)c5)c4)c(F)c3)cn(C(C)C)c2=O)cc1 [No. 15, N-(3-fluoro-4-((2-(1-methyl-1H-pyrazol-4-yl)pyridin-4-yl)oxy)phenyl)-1-isopropyl-2,4-dioxo-3-p-tolyl-1,2,3,4-tetrahydropyrimidin-5-carboxamide]
> 100	> 100	COc1ccc(-n2c(=O)c(C(=O)Nc3ccc(Oc4ccnc(-c5cnn(C)c5)c4)c(F)c3)cn(C(C)C)c2=O)cc1 [No. 16, N-(3-fluoro-4-((2-(1-methyl-1H-pyrazol-4-yl)pyridin-4-yl)oxy)phenyl)-1-isopropyl-3-(4-methoxyphenyl)-2,4-dioxo-1,2,3,4-tetrahydropyrimidin-5-carboxamide]
< 10	< 10	CC(C)n1cc(C(=O)Nc2ccc(Oc3ccnc(-c4cnn(C)c4)c3)c(F)c2)c(=O)n(-c2cccc(F)c2)c1=O [No. 17, N-(3-fluoro-4-((2-(1-methyl-1H-pyrazol-4-yl)pyridin-4-yl)oxy)phenyl)-3-(3-fluorophenyl)-1-isopropyl-2,4-dioxo-1,2,3,4-tetrahydropyrimidin-5-carboxamide]
< 10	10 to 100	CC(C)n1cc(C(=O)Nc2ccc(Oc3ccnc(-c4cnn(C)c4)c3)c(F)c2)c(=O)n(-c2ccccc2F)c1=O [No. 18, N-(3-fluoro-4-((2-(1-methyl-1H-pyrazol-4-yl)pyridin-4-yl)oxy)phenyl)-3-(2-fluorophenyl)-1-isopropyl-2,4-dioxo-1,2,3,4-tetrahydropyrimidin-5-carboxamide]
< 10	< 10	CC(C)n1cc(C(=O)Nc2ccc(Oc3ccnc(-c4cnn(C)c4)c3)c(F)c2)c(=O)n(-c2ccc(F)c(F)c2)c1=O [No. 19, 3-(3,4-difluorophenyl)-N-(3-fluoro-4-((2-(1-methyl-1H-pyrazol-4-yl)pyridin-4-yl)oxy)phenyl)-1-isopropyl-2,4-dioxo-1,2,3,4-tetrahydropyrimidin-5-carboxamide]
> 100	> 100	CC(C)n1cc(C(=O)Nc2ccc(Oc3ccnc(-c4cnn(C)c4)c3)c(F)c2)c(=O)n(-c2ccncc2)c1=O [No. 20, N-(3-fluoro-4-((2-(1-methyl-1H-pyrazol-4-yl)pyridin-4-yl)oxy)phenyl)-1-isopropyl-2,4-dioxo-3-(pyridin-4-yl)-1,2,3,4-tetrahydropyrimidin-5-carboxamide]
10 to 100	> 100	CC(C)n1cc(C(=O)Nc2ccc(Oc3ccnc(-c4cnn(C)c4)c3)c(F)c2)c(=O)n(-c2cnn(C)c2)c1=O [No. 21, N-(3-fluoro-4-((2-(1-methyl-1H-pyrazol-4-yl)pyridin-4-yl)oxy)phenyl)-1-isopropyl-3-(1-methyl-1H-pyrazol-4-yl)-2,4-dioxo-1,2,3,4-tetrahydropyrimidin-5-carboxamide]
10 to 100	> 100	CC(C)n1cc(C(=O)Nc2ccc(Oc3ccnc(-c4cnn(C)c4)c3)c(F)c2)c(=O)n([C@H]2CC[C@H](C)CC2)c1=O [No. 22, N-(3-fluoro-4-((2-(1-methyl-1H-pyrazol-4-yl)pyridin-4-yl)oxy)phenyl)-1-isopropyl-3-((1R,4R)-4-methylcyclohexyl)-2,4-dioxo-1,2,3,4-tetrahydropyrimidin-5-carboxamide]
10 to 100	10 to 100	CC(C)n1nc(C(=O)Nc2ccc(Oc3ccnc(-c4cnn(C)c4)c3)cc2)c(=O)n(-c2ccc(F)cc2)c1=O [No. 23, 4-(4-fluorophenyl)-2-isopropyl-N-(4-((2-(1-methyl-1H-pyrazol-4-yl)pyridin-4-yl)oxy)phenyl)-3,5-dioxo-2,3,4,5-tetrahydro-1,2,4-triazin-6-carboxamide]
< 10	10 to 100	CC(C)n1nc(C(=O)Nc2ccc(Oc3ccnc(-c4cnn(C)c4)c3)c(F)c2)c(=O)n(-c2ccc(F)cc2)c1=O [No. 24, N-(3-fluoro-4-((2-(1-methyl-1H-pyrazol-4-yl)pyridin-4-yl)oxy)phenyl)-4-(4-fluorophenyl)-2-isopropyl-3,5-dioxo-2,3,4,5-tetrahydro-1,2,4-triazine-6-carboxamide]
< 10	10 to 100	COc1ccc(-c2cnc(N)c(-c3ccc(NC(=O)c4cn(C(C)C)c(=O)n(-c5ccc(F)cc5)c4=O)cc3F)c2)cc1OC [No. 37, N-(4-(2-amino-5-(3,4-dimethoxyphenyl)pyridin-3-yl)-3-fluorophenyl)-3-(4-fluorophenyl)-1-isopropyl-2,4-dioxo-1,2,3,4-tetrahydropyrimidin-5-carboxamide]
< 10	< 10	CC(C)n1cc(C(=O)Nc2ccc(-c3cc(-c4cnn(C)c4)cnc3N)c(F)c2)c(=O)n(-c2ccc(F)cc2)c1=O [No. 38, N-(4-(2-amino-5-(1-methyl-1H-pyrazol-4-yl)pyridin-3-yl)-3-fluorophenyl)-3-(4-fluorophenyl)-1-isopropyl-2,4-dioxo-1,2,3,4-tetrahydropyrimidin-5-carboxamide]
< 10	10 to 100	COc1cc(-c2cnc(N)c(-c3ccc(NC(=O)c4cn(C(C)C)c(=O)n(-c5ccc(F)cc5)c4=O)cc3F)c2)ccc1OC[C@H]1COCCO1 [No. 39, (R)—N-(4-(5-(4-((1,4-dioxan-2-yl)methoxy)-3-methoxyphenyl)-2-aminopyridin-3-yl)-3-fluorophenyl)-3-(4-fluorophenyl)-1-isopropyl-2,4-dioxo-1,2,3,4-tetrahydropyrimidin-5-carboxamide]
